The nature of data set [1]: Literature estimates of intestinal availability. As to conditions: translated from FaFg 0.28. On the set-up: species or system human.
The conditions of data set [2]: cited from earlier work.
The next data set concerns OATP1B and BCRP. As to conditions: clinical DDI study; cited from earlier work.
Data set [3] can be described thus: Clinical DDI study part 2: effect of fenebrutinib on PK of rosuvastatin. As to conditions: both, human, plasma, oral, 20 mg.
The test system of the next data set is BCRP and OATP1B. Described as above. The following applies: both, human, plasma, oral.
For data set [4], the system named is CYP3A. The following applies: in the presence of fluconazole and voriconazole; cited from earlier work.
For data set [5] the following is noted: both, human, plasma, oral, 2 mg.
The test system of data set [6] is CYP3A.
Where [7] appears, read: MDZ coadministered with fenebrutinib 200 mg b.i.d. vs MDZ alone.
Setting [8] is: both, human, plasma, oral, 2 mg.

Read-outs that look alike come from different tables or passages of the source.

The term half-life denotes the time in which the quantity being followed falls by half. Higher therefore signals slow loss. With `CC(C)c1nc(N(C)S(C)(=O)=O)nc(-c2ccc(F)cc2)c1/C=C/[C@@H](O)C[C@@H](O)CC(=O)O` [Rosuvastatin, rosuvastatin], the “maximum AUC increase if FaFg increased to 1 with intestinal BCRP inhibition” value in data set [1] is reported as 3.6 fold. In data set [2] (estimated, ref Tanaka et al.23), the FaFg is 0.28. For the same molecule, the “exposure increase in the presence of eltrombopag” value with OATP1B and BCRP is 55%. In data set [3], this molecule showed an AUC(0-inf) of 0.093 µg·h/mL, a Cmax of 9.08 ng/mL and a half-life of 19.9 h. The half-life in the data set on BCRP and OATP1B is 18.2 h. The molecule further yielded an AUC(0-t) in the data set on BCRP and OATP1B (20 mg) of 0.091 µg·h/mL.
As for `OCc1ncc2n1-c1ccc(Cl)cc1C(c1ccccc1F)=NC2` [1′‐hydroxymidazolam], in the data set with CYP3A [4], the “exposure increase in the presence of other CYP3A inhibitors” value is given as ~ 1.5 fold.
Turning to `Cc1ncc2n1-c1ccc(Cl)cc1C(c1ccccc1F)=NC2` [MDZ, midazolam], in data set [2], the “intestinal availability (FaFg)” value was 48%. Besides, in data set [5], the Cmax stood at 8.54 ng/mL and the half-life is 6.23 h. Further, in the data set on CYP3A [6] (setting [7]), the “AUC0−t, fold higher with fenebrutinib vs alone” value was ~ 1.99 fold and the “Cmax, fold higher with fenebrutinib vs alone” value is on record as ~ 1.74 fold. Moreover, in the data set with CYP3A [6] (both, human, plasma, oral), the half-life was 6.68 h. In the data set with CYP3A [6] (setting [8]), this molecule returned an AUC(0-inf) of 0.0205 µg·h/mL and an AUC(0-t) of 0.0192 µg·h/mL.

The values are drawn from publication PMC6977399 (Clinical Pharmacology and Therapeutics, 2019).
